{"source": "patent US20250057963A1", "about": "“DISCOVERY OF PIPERLONGUMINE AS A NOVEL E3 LIGASE LIGAND” (University of Florida Research Foundation, Incorporated, priority 2021, published 2025)", "key": {"[1]": {"test_system": "E3 ligases interacting with V5-TurboID-CDK9", "assay": "TurboID-bait assay (V5-TurboID-CDK9 in 293T cells) with LC-MS/MS or immunoblot", "format": "cell-based, Human", "settings": "MS of biotinylated proteins with vs without 955", "from_the_text": "(§1) Construction of the pcDNA3-V5-TurboID-CDK9 plasmid. To build the TurboID-bait assay, we first constructed a V5-TurboID-tagged CDK9 plasmid (pDL2518) through Gibson assembly method. The template plasmids HA-CDK9 (a gift from Andrew Rice, plasmid #28102) and V5-TurboID-NES_pCDNA3 (a gift from Alice Ting, plasmid #107169) were purchased from Addgene. The primer pair (5′-cagtctgcggtctgccgaaaagctgcag[…]-3′ and 5′-cagggtcaggcgctccaggggaggcag[…]-3′) and the template HA-CDK9 were used to clone the CDK9 fragment. The two primer pairs: pair-1 (5′-[…]ctgcctcccctggagcgcctgaccctg-3′ and 5′-[…]-3′); pair-2 (5′-[…]-3′ and 5′-[…]ctgcagcttttcggcagaccgcagactg-3′) and the template V5-TurboID-NES_pCDNA3 were used to clone the V5-TurbolD fragment. The PCR fragments were assembled using NEBuilder® HiFi DNAAssembly Master Mix (Cat. No. E2621, NEB, Ipswich, MA, USA). DNA sequences in all these plasmids were authenticated by automatic sequencing.\n(§2) TurboID-bait assay. 293T (6×10^5 for WB detection and 1.2×10^6 for MS) cells were transfected with plasmid V5-TurboID-CDK9 using Lipofectamine 2000 as previously described (Lv et al., 2021). […] Then the cells were harvested and lysed in 1×PBS buffer (Cat. #D1408, Sigma-Aldrich). After centrifugation at 20,000×g for 60 min at 4° C., the supernatant soluble fraction was used for further analysis. […]"}, "[2]": {"molecular_target": "T1, E3 ligases interacting with V5-TurboID-CDK9 (Homo sapiens, UniProt Q14145)", "T1 construct": "The biotinylated proteins identified by MS in 293T cells; expressed in transfected cells; host or cells: 293T", "T1 sequence (Q14145 whole entry)": "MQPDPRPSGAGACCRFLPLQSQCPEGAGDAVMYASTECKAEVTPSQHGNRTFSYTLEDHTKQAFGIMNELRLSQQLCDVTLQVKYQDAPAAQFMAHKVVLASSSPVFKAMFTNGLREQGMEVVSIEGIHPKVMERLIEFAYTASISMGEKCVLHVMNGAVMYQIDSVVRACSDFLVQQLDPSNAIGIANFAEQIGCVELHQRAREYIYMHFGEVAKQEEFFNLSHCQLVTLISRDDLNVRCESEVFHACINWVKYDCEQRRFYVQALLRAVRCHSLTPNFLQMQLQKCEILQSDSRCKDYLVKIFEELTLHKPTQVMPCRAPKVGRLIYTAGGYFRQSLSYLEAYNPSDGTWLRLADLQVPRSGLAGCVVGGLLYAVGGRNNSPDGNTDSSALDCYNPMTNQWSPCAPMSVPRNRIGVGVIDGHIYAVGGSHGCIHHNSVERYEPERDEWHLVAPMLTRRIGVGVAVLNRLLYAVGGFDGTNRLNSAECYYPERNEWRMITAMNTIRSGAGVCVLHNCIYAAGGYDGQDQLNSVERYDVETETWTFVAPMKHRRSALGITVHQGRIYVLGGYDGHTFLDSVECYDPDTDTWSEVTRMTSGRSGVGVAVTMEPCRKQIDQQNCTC", "T1 sequence (P50750 whole entry partner)": "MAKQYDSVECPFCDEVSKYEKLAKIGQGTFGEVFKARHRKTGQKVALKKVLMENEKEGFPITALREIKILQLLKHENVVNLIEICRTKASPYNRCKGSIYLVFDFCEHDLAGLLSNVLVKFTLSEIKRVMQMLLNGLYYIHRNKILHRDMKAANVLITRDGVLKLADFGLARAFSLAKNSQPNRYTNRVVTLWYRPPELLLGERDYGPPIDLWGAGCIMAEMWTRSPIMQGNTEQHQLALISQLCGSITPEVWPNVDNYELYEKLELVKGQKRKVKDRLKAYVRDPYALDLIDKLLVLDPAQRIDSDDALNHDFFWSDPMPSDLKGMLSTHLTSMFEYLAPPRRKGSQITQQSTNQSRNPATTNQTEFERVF", "assay": "TurboID-bait assay (V5-TurboID-CDK9 in 293T cells) with LC-MS/MS or immunoblot", "format": "cell-based", "settings": "with vs without 955, biotin present", "from_the_text": "as §1, §2"}}, "note": "Entries after “also recorded” stand apart in the source; their conditions may differ."}
{"compound": "COc1cc(/C=C/C(=O)N2CCC=CC2=O)cc(OC)c1OCCN1CCN(C(=O)CN2CCC(C(=O)Nc3ncc(SCc4ncc(C(C)(C)C)o4)s3)CC2)CC1", "note": "[compound 955, (E)-N-(5-(((5-(tert-butyl)oxazol-2-yl)methyl)thio)thiazol-2-yl)-1-(2-(4-(2-(2,6-dimethoxy-4-(3-oxo-3-(6-oxo-3,6-dihydropyridin-1(2H)-yl)prop-1-en-1-yl)phenoxy)ethyl)piperazin-1-yl)-2-oxoethyl)piperidine-4-carboxamide]", "values": [{"measurement": "number of E3 ligases recruited to CDK9", "setting": "[1]", "result": 6}, {"measurement": "KEAP1 pulled down (immunoblot validation)", "setting": "[2]", "result": "more KEAP1 could be pulled down; also recorded: significantly more KEAP1 can be pulled down"}]}
